In general, CLint scaled refers to a measure of how fast metabolising enzymes remove a compound, apart from limits set by blood flow. Broadly, the IC50 is the concentration that inhibits the measured activity by half. A word on the ED50: it is the dose that gives a 50% effect, or the effect in half of the subjects. The low end stands for greater potency, the high end for weaker potency.

Data set [1] in a line: Intrinsic clearance in human liver microsomes. The data set is classed as ADME. In general terms: Microsomes from liver hold many membrane-bound enzymes, among them those of drug oxidation.
For a further data set, the target named is Cytochrome P450 3A4 (Homo sapiens, UniProt P08684). Nature of the data set: Inhibition of recombinant human CYP3A4. It is filed as ADME.
For data set [2], the target named is Glycogen synthase kinase-3 beta (Homo sapiens, UniProt P49841). Nature of the data set: Inhibition of human recombinant GSK3beta assessed as inhibition of [gamma32P]ATP after 1 hr by liquid scintillation counting in presence of prephosphorylated GS1 peptide.
For a further data set, the target named is T1, Cytochrome P450 1A2 (Homo sapiens, UniProt P05177).
T1 sequence (P05177 whole entry): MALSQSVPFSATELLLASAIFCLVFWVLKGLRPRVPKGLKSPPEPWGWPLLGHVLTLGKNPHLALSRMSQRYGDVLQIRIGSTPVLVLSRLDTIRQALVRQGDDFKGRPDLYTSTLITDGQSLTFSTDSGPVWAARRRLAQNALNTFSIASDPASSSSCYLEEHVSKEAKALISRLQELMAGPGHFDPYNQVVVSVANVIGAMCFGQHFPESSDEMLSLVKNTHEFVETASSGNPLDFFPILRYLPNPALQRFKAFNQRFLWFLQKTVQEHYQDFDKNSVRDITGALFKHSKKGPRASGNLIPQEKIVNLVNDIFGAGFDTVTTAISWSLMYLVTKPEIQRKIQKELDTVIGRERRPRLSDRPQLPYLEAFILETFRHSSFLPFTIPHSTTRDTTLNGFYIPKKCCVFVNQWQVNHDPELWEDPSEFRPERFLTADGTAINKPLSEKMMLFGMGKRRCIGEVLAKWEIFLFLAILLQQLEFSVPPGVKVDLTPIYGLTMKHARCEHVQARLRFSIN
The data set is described as follows: Inhibition of recombinant human CYP1A2. It is filed as ADME.

For a further data set, the target named is Cytochrome P450 2D6 (Homo sapiens, UniProt P10635). Nature of the data set: Inhibition of recombinant human CYP2D6. It is filed as ADME.
The nature of data set [3]: Permeability across human Caco2 cells. It is filed as ADME, cell-based. The conditions noted are these: Caco-2, read-out: permeability. A general note: Caco-2 monolayers are a common model of the intestinal barrier.
Another data set relates to Mus musculus. Nature of the data set: Inhibition of GSK3beta-mediated tau phosphorylation at Ser396 residue in po dosed CD-1 mouse measured 1 hr post dose. The following applies: CD-1, po. It is filed as functional.

Chain of Cytochrome P450 3A4 (P08684 whole entry): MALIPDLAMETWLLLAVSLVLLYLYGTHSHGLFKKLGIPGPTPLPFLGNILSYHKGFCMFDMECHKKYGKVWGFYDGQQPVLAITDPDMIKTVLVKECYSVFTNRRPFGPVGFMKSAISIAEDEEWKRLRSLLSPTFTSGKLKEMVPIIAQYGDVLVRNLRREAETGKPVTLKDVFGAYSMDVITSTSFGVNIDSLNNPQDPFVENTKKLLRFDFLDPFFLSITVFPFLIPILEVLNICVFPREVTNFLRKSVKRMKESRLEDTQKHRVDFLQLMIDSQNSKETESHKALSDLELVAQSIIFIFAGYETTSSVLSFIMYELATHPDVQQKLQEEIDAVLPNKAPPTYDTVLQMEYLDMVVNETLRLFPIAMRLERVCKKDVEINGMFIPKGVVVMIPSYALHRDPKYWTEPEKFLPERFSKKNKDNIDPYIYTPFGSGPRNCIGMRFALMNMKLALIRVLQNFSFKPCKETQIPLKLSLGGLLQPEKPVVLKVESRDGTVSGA
Chain of Glycogen synthase kinase-3 beta (P49841 whole entry): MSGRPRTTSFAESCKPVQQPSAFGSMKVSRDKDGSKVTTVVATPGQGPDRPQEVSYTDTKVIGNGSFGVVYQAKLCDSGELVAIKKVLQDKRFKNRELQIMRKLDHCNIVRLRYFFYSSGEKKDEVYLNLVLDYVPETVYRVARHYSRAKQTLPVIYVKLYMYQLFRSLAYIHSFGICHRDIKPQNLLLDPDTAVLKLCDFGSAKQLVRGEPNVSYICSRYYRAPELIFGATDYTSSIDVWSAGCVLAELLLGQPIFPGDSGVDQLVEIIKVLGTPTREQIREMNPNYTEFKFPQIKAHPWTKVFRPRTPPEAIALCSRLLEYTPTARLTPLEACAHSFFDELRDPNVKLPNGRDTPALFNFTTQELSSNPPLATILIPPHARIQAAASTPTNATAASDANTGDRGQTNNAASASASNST
Chain of Cytochrome P450 2D6 (P10635 whole entry): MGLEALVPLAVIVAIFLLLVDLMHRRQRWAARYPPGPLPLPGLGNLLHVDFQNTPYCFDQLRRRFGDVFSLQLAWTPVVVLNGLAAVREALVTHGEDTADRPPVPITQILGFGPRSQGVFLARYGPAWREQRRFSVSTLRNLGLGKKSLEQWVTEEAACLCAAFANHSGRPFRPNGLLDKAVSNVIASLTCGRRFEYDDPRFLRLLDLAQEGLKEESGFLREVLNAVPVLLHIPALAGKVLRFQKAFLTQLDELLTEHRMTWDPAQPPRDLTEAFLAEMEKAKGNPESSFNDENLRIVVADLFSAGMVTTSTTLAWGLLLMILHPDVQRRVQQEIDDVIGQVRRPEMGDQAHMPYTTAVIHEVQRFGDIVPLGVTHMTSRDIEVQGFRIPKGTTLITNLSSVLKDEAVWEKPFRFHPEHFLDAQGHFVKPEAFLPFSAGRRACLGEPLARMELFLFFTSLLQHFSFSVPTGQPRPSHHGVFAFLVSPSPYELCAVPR

Turning to `Cn1c(N2CCO[C@@H](c3ccc(F)cc3)C2)nc(-c2ccncn2)cc1=O`, the CLint scaled in data set [1] was found to be 60 µL/min/mg. For the same compound, the IC50 at Cytochrome P450 3A4 was above 50000 nM.
Take `Cn1c(N2CCOCC2)nc(-c2ccncc2F)cc1=O`: the IC50 in data set [2] came to 67 nM.
Consider `C[C@@H]1COCCN1c1nc(-c2ccncc2F)cc(=O)n1C`, for which the 50% inhibitory concentration (IC50) at Cytochrome P450 1A2 is 18700 nM; on Cytochrome P450 2D6, above 50000 nM; in data set [2] it was 7 nM; at Cytochrome P450 3A4, above 50000 nM. Besides, the Papp in data set [3] is 54.6 ×10⁻⁶ cm/s. The CLint scaled in data set [1] stood at 30 µL/min/mg. Moreover, the ED50 with Mus musculus stood at 6.8 mg/kg.
Consider `CC[C@@H]1COCCN1c1nc(-c2ccncc2F)cc(=O)n1C`, for which the IC50 in data set [2] was 19 nM.
In the case of `CC(C)[C@@H]1COCCN1c1nc(-c2ccncc2F)cc(=O)n1C`, in data set [2], the IC50 came out at 14 nM.
As to `C[C@H]1COCCN1c1nc(-c2ccncc2F)cc(=O)n1C`, the IC50 on Cytochrome P450 1A2 was 5700 nM; at Cytochrome P450 2D6, above 50000 nM; in data set [2] it was 23 nM; on Cytochrome P450 3A4, above 50000 nM. This compound showed a CLint scaled in data set [1] of 20 µL/min/mg.
For `CC[C@H]1COCCN1c1nc(-c2ccncc2F)cc(=O)n1C`, the IC50 in data set [2] came out at 30 nM.
The same measure, in the same setting: the figure for `C[C@@H]1CN(c2nc(-c3ccncc3F)cc(=O)n2C)[C@H](C)CO1` is 453 nM.
Turning to `C[C@@H]1CO[C@@H](C)CN1c1nc(-c2ccncc2F)cc(=O)n1C`, the IC50 in data set [2] is 41 nM.
Regarding `C[C@@H]1OCCN(c2nc(-c3ccncc3F)cc(=O)n2C)[C@H]1C`, the IC50 in data set [2] amounted to 19 nM.
For the compound `C[C@@H]1[C@@H](C)OCCN1c1nc(-c2ccncc2F)cc(=O)n1C`, the IC50 on Cytochrome P450 1A2 was 16000 nM; at Cytochrome P450 2D6 it was above 50000 nM; in data set [2], 4.9 nM; at Cytochrome P450 3A4 it was above 50000 nM. In data set [3], the Papp is 48.5 ×10⁻⁶ cm/s.
With `Cn1c(N2CCO[C@@H]3CCC[C@H]32)nc(-c2ccncc2F)cc1=O`, the IC50 at Cytochrome P450 1A2 is 21000 nM; on Cytochrome P450 2D6 it was above 50000 nM; in data set [2], 4.2 nM; on Cytochrome P450 3A4, above 50000 nM. The Papp in data set [3] stood at 44.5 ×10⁻⁶ cm/s. The same compound returned a CLint scaled in data set [1] of 40 µL/min/mg.
For `Cn1c(N2CCO[C@H]3CCC[C@@H]32)nc(-c2ccncc2F)cc1=O`, the IC50 in data set [2] came out at 35 nM.
`Cn1c(N2CCO[C@@H]3CCCC[C@H]32)nc(-c2ccncc2F)cc1=O`: the IC50 was 14000 nM on Cytochrome P450 1A2, above 50000 nM at Cytochrome P450 2D6, 3.7 nM in data set [2] and above 50000 nM on Cytochrome P450 3A4. Besides, the Papp in data set [3] was 41.8 ×10⁻⁶ cm/s. In addition, the CLint scaled in data set [1] came to 200 µL/min/mg.
As for `Cn1c(N2CCO[C@@H]3COC[C@H]32)nc(-c2ccncc2F)cc1=O`, the IC50 was above 50000 nM at Cytochrome P450 1A2, above 50000 nM at Cytochrome P450 2D6, 3.1 nM in data set [2] and above 50000 nM on Cytochrome P450 3A4. Further, in data set [3], the Papp came to 54.5 ×10⁻⁶ cm/s. The compound further displayed a CLint scaled in data set [1] of 20 µL/min/mg.
Regarding `CC(C)C1CN(c2nc(-c3ccncc3F)cc(=O)n2C)CCO1` (racemic), the IC50 was 3300 nM on Cytochrome P450 1A2, above 50000 nM on Cytochrome P450 2D6, 17 nM in data set [2] and above 50000 nM on Cytochrome P450 3A4. In addition, the CLint scaled in data set [1] amounted to 70 µL/min/mg.
`CCCCC1CN(c2nc(-c3ccncc3F)cc(=O)n2C)CCO1` (racemic): the concentration for half-maximal inhibition (IC50) on Cytochrome P450 1A2 was 7500 nM; on Cytochrome P450 2D6, 2300 nM; in data set [2] it was 12 nM; on Cytochrome P450 3A4 it was above 50000 nM. Further, in data set [1], the CLint scaled came out at 210 µL/min/mg.
Taken in the same sequence, the figures for `Cn1c(N2CCOC(C3CCC3)C2)nc(-c2ccncc2F)cc1=O` (racemic) were 1500 nM, 37700 nM, 12 nM, above 50000 nM and 200 µL/min/mg.
As for `CC1N(c2nc(-c3ccncc3F)cc(=O)n2C)CCOC1(C)C` (racemic), the IC50 in data set [2] is 9.7 nM.
On the same count and under the same terms, the figure for `C[C@@H]1OCCN(c2nc(-c3ccncc3F)cc(=O)n2C)[C@@H]1C` (stereo in doubt; 13) is 16 nM; for `C[C@@H]1OCCN(c2nc(-c3ccncc3F)cc(=O)n2C)[C@@H]1C` (stereo in doubt; 14) it is 32 nM.

Values taken from ChEMBL document CHEMBL3400125, “Discovery of novel 2-(alkylmorpholin-4-yl)-6-(3-fluoropyridin-4-yl)-pyrimidin-4(3H)-ones as orally-active GSK-3β inhibitors for Alzheimer's disease” (Bioorg Med Chem Lett, 2015).
